In patent publication US11198713B2, “Agents modulating beta-catenin functions and methods thereof” (FOG PHARMACEUTICALS, INC., priority 2017, dated 2021):

What follows are molecules tested against T1, full-length beta-catenin (Axin site) (Homo sapiens, UniProt P35222) (assay: Competition fluorescence polarization assay (Axin site probe)). Conditions: competition fluorescence polarization, Table 2; read-out: in vitro FP EC50.
T1 construct: 15 nM full-length beta-catenin, 20 nM FITC labeled peptide in buffer
T1 sequence (P35222 1-781): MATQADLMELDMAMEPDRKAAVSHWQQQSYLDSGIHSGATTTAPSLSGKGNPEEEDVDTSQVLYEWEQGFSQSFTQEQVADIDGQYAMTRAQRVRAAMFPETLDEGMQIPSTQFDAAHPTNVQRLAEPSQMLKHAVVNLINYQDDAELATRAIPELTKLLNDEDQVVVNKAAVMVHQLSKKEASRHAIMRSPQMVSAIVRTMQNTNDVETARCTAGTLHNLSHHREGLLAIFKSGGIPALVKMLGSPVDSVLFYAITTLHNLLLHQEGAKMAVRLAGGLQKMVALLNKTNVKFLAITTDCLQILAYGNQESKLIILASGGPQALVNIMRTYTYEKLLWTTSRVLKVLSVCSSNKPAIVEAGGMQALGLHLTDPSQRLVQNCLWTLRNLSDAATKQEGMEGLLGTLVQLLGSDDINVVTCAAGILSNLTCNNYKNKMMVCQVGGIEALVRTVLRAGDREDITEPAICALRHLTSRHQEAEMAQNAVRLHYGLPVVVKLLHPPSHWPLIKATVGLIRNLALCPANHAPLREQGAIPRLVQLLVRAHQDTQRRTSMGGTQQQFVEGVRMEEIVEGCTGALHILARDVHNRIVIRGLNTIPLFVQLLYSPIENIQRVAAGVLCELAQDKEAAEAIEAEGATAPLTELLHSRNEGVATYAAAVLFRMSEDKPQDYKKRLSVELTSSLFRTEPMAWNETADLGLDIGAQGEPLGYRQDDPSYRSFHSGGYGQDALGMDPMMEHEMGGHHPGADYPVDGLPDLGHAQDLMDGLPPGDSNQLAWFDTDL
Format: binding
Summary of the method: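 Competition FP: 15 nM full-length β-catenin pre-incubated 5 min with 20 nM FITC-labelled stapled Axin-site peptide, then titrated peptide added (3-fold series from 5 μM) for 15 min in the dark. Buffer 50 mM Tris pH 8.0, 250 mM NaCl, 2% glycerol, 0.5 mM EDTA; duplicate reads.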

| EC50 | SMILES |
| --- | --- |
| 0.5 to 5 µM | CC[C@H](C)[C@@H]1NC(=O)[C@@](C)(NC(=O)[C@H](CCC(N)=O)NC(=O)[C@@H]2CCCN2C(C)=O)CCN(C)C(=O)OCC=CCCC[C@@](C)(C(=O)N[C@@H](Cc2c[nH]cn2)C(=O)N[C@H](C(=O)N[C@@H](CCCNC(=N)N)C(=O)N[C@@H](CCCNC(=N)N)C(=O)N[C@H](C(=O)N[C@@H](Cc2c[nH]c3ccccc23)C(=O)N[C@@H](CCCNC(=N)N)C(N)=O)C(C)C)C(C)C)NC(=O)[C@H](CC(=O)O)NC(=O)[C@H](CC(C)C)NC1=O (single isomer, unassigned) [FP0779c, Ac-P-Q-MF-I-L-D-S5-H-V-R-R-V-W-R-NH2] |
| 0.5 to 5 µM | CC[C@H](C)[C@@H]1NC(=O)[C@@](C)(NC(=O)[C@H](CCC(N)=O)NC(=O)[C@@H]2CCCN2C(C)=O)CCCN(C)C(=O)OCC=CCCC[C@@](C)(C(=O)N[C@@H](Cc2c[nH]cn2)C(=O)N[C@H](C(=O)N[C@@H](CCCNC(=N)N)C(=O)N[C@@H](CCCNC(=N)N)C(=O)N[C@H](C(=O)N[C@@H](Cc2c[nH]c3ccccc23)C(=O)N[C@@H](CCCNC(=N)N)C(N)=O)C(C)C)C(C)C)NC(=O)[C@H](CC(=O)O)NC(=O)[C@H](CC(C)C)NC1=O (single isomer, unassigned) [FP0780c, Ac-P-Q-MH-I-L-D-S5-H-V-R-R-V-W-R-NH2] |
| 0.1 to 0.5 µM | CC[C@H](C)[C@@H]1NC(=O)[C@](C)(NC(=O)[C@H](CCC(N)=O)NC(=O)[C@@H]2CCCN2C(C)=O)CCN(C)C(=O)OCC=CCCC[C@](C)(C(=O)N[C@@H](Cc2c[nH]cn2)C(=O)N[C@H](C(=O)N[C@@H](CCCNC(=N)N)C(=O)N[C@@H](CCCNC(=N)N)C(=O)N[C@H](C(=O)N[C@@H](Cc2c[nH]c3ccccc23)C(=O)N[C@@H](CCCNC(=N)N)C(N)=O)C(C)C)C(C)C)NC(=O)[C@H](CC(=O)O)NC(=O)[C@H](CC(C)C)NC1=O (single isomer, unassigned) [FP0782c, Ac-P-Q-MG-I-L-D-R5-H-V-R-R-V-W-R-NH2] |
| 0.5 to 5 µM | CC[C@H](C)[C@@H]1NC(=O)[C@](C)(NC(=O)[C@H](CCC(N)=O)NC(=O)[C@@H]2CCCN2C(C)=O)CCCN(C)CC=CCCC[C@](C)(C(=O)N[C@@H](Cc2c[nH]cn2)C(=O)N[C@H](C(=O)N[C@@H](CCCNC(=N)N)C(=O)N[C@@H](CCCNC(=N)N)C(=O)N[C@H](C(=O)N[C@@H](Cc2c[nH]c3ccccc23)C(=O)N[C@@H](CCCNC(=N)N)C(N)=O)C(C)C)C(C)C)NC(=O)[C@H](CC(=O)O)NC(=O)[C@H](CC(C)C)NC1=O (single isomer, unassigned) [FP0783a, Ac-P-Q-MI-I-L-D-R5-H-V-R-R-V-W-R-NH2] |
| 0.5 to 5 µM | CC[C@H](C)[C@@H]1NC(=O)[C@](C)(NC(=O)[C@H](CCC(N)=O)NC(=O)[C@@H]2CCCN2C(C)=O)CCCN(C)C(=O)OCC=CCCC[C@](C)(C(=O)N[C@@H](Cc2c[nH]cn2)C(=O)N[C@H](C(=O)N[C@@H](CCCNC(=N)N)C(=O)N[C@@H](CCCNC(=N)N)C(=O)N[C@H](C(=O)N[C@@H](Cc2c[nH]c3ccccc23)C(=O)N[C@@H](CCCNC(=N)N)C(N)=O)C(C)C)C(C)C)NC(=O)[C@H](CC(=O)O)NC(=O)[C@H](CC(C)C)NC1=O (single isomer, unassigned) [FP0783c, Ac-P-Q-MI-I-L-D-R5-H-V-R-R-V-W-R-NH2] |

Same assay, conditions: competition with FITC labeled Axin-site probe, 15 nM full-length beta-catenin; read-out: FP EC50

| SMILES | EC50 |
| --- | --- |
| CC[C@H](C)[C@@H]1NC(=O)C2(NC(=O)[C@H](CCC(N)=O)NC(=O)[C@@H]3CCCN3C(C)=O)CN(C2)C(=O)OCC=CCC[C@](C)(C(=O)N[C@@H](Cc2c[nH]cn2)C(=O)N[C@H](C(=O)N[C@@H](CCCNC(=N)N)C(=O)N[C@@H](CCCNC(=N)N)C(=O)N[C@H](C(=O)N[C@@H](Cc2c[nH]c3ccccc23)C(=O)N[C@@H](CCCNC(=N)N)C(N)=O)C(C)C)C(C)C)NC(=O)[C@H](CC(=O)O)NC(=O)[C@H](CC(C)C)NC1=O (single isomer, unassigned) [FP-0721c, Ac-P-Q-Az-I-L-D-R4-H-V-R-R-V-W-R-NH2] | 1.3 µM |
| CC[C@H](C)[C@@H]1NC(=O)C2(NC(=O)[C@H](CCC(N)=O)NC(=O)[C@@H]3CCCN3C(C)=O)CN(C2)C(=O)OCC=CCCC[C@](C)(C(=O)N[C@@H](Cc2c[nH]cn2)C(=O)N[C@H](C(=O)N[C@@H](CCCNC(=N)N)C(=O)N[C@@H](CCCNC(=N)N)C(=O)N[C@H](C(=O)N[C@@H](Cc2c[nH]c3ccccc23)C(=O)N[C@@H](CCCNC(=N)N)C(N)=O)C(C)C)C(C)C)NC(=O)[C@H](CC(=O)O)NC(=O)[C@H](CC(C)C)NC1=O (single isomer, unassigned) [FP-0723c, Ac-P-Q-Az-I-L-D-R5-H-V-R-R-V-W-R-NH2] | 1.4 µM |
| CC[C@H](C)[C@@H]1NC(=O)C2(NC(=O)[C@H](CCC(N)=O)NC(=O)[C@@H]3CCCN3C(C)=O)CN(CC=CCCCC[C@](C)(C(=O)N[C@@H](Cc3c[nH]cn3)C(=O)N[C@H](C(=O)N[C@@H](CCCNC(=N)N)C(=O)N[C@@H](CCCNC(=N)N)C(=O)N[C@H](C(=O)N[C@@H](Cc3c[nH]c4ccccc34)C(=O)N[C@@H](CCCNC(=N)N)C(N)=O)C(C)C)C(C)C)NC(=O)[C@H](CC(=O)O)NC(=O)[C@H](CC(C)C)NC1=O)C2 (single isomer, unassigned) [FP-0725, Ac-P-Q-Az-I-L-D-R6-H-V-R-R-V-W-R-NH2] | 0.58 µM |
| CC[C@H](C)[C@@H]1NC(=O)[C@@](C)(NC(=O)[C@H](CCC(N)=O)NC(=O)[C@@H]2CCCN2C(C)=O)CCCC=CCN2CC(C(=O)N[C@@H](Cc3c[nH]cn3)C(=O)N[C@H](C(=O)N[C@@H](CCCNC(=N)N)C(=O)N[C@@H](CCCNC(=N)N)C(=O)N[C@H](C(=O)N[C@@H](Cc3c[nH]c4ccccc34)C(=O)N[C@@H](CCCNC(=N)N)C(N)=O)C(C)C)C(C)C)(C2)NC(=O)[C@H](CC(=O)O)NC(=O)[C@H](CC(C)C)NC1=O (single isomer, unassigned) [FP-0734, Ac-P-Q-S5-I-L-D-Az-H-V-R-R-V-W-R-NH2] | > 5 µM |

The next lines start with the values.

| EC50 | SMILES |
| --- | --- |
| > 5 µM | CC[C@H](C)[C@@H]1NC(=O)[C@@](C)(NC(=O)[C@H](CCC(N)=O)NC(=O)[C@@H]2CCCN2C(C)=O)CCCC=CCOC(=O)N2CC(C(=O)N[C@@H](Cc3c[nH]cn3)C(=O)N[C@H](C(=O)N[C@@H](CCCNC(=N)N)C(=O)N[C@@H](CCCNC(=N)N)C(=O)N[C@H](C(=O)N[C@@H](Cc3c[nH]c4ccccc34)C(=O)N[C@@H](CCCNC(=N)N)C(N)=O)C(C)C)C(C)C)(C2)NC(=O)[C@H](CC(=O)O)NC(=O)[C@H](CC(C)C)NC1=O (single isomer, unassigned) [FP-0734c, Ac-P-Q-S5-I-L-D-Az-H-V-R-R-V-W-R-NH2] |
| 0.2 µM | CC[C@H](C)[C@@H]1NC(=O)[C@@](C)(NC(=O)[C@H](CCC(N)=O)NC(=O)[C@@H]2CCCN2C(C)=O)CCCCCC=CCN2CC(C(=O)N[C@@H](Cc3c[nH]cn3)C(=O)N[C@H](C(=O)N[C@@H](CCCNC(=N)N)C(=O)N[C@@H](CCCNC(=N)N)C(=O)N[C@H](C(=O)N[C@@H](Cc3c[nH]c4ccccc34)C(=O)N[C@@H](CCCNC(=N)N)C(N)=O)C(C)C)C(C)C)(C2)NC(=O)[C@H](CC(=O)O)NC(=O)[C@H](CC(C)C)NC1=O (single isomer, unassigned) [FP-0738, Ac-P-Q-S7-I-L-D-Az-H-V-R-R-V-W-R-NH2] |
| 1.8 µM | CC[C@H](C)[C@@H]1NC(=O)[C@@](C)(NC(=O)[C@H](CCC(N)=O)NC(=O)[C@@H]2CCCN2C(C)=O)CCCCCC=CCOC(=O)N2CC(C(=O)N[C@@H](Cc3c[nH]cn3)C(=O)N[C@H](C(=O)N[C@@H](CCCNC(=N)N)C(=O)N[C@@H](CCCNC(=N)N)C(=O)N[C@H](C(=O)N[C@@H](Cc3c[nH]c4ccccc34)C(=O)N[C@@H](CCCNC(=N)N)C(N)=O)C(C)C)C(C)C)(C2)NC(=O)[C@H](CC(=O)O)NC(=O)[C@H](CC(C)C)NC1=O (single isomer, unassigned) [FP-0738c, Ac-P-Q-S7-I-L-D-Az-H-V-R-R-V-W-R-NH2] |
| > 5 µM | CC[C@H](C)[C@@H]1NC(=O)[C@@]2(NC(=O)[C@H](CCC(N)=O)NC(=O)[C@@H]3CCCN3C(C)=O)CCN(CC=CCCC[C@](C)(C(=O)N[C@@H](Cc3c[nH]cn3)C(=O)N[C@H](C(=O)N[C@@H](CCCNC(=N)N)C(=O)N[C@@H](CCCNC(=N)N)C(=O)N[C@H](C(=O)N[C@@H](Cc3c[nH]c4ccccc34)C(=O)N[C@@H](CCCNC(=N)N)C(N)=O)C(C)C)C(C)C)NC(=O)[C@H](CC(=O)O)NC(=O)[C@H](CC(C)C)NC1=O)C2 (single isomer, unassigned) [FP-0743, Ac-P-Q-PR-I-L-D-R5-H-V-R-R-V-W-R-NH2] |
| 0.11 µM | CC[C@H](C)[C@@H]1NC(=O)[C@@]2(NC(=O)[C@H](CCC(N)=O)NC(=O)[C@@H]3CCCN3C(C)=O)CCN(C2)C(=O)OCC=CCCCC[C@](C)(C(=O)N[C@@H](Cc2c[nH]cn2)C(=O)N[C@H](C(=O)N[C@@H](CCCNC(=N)N)C(=O)N[C@@H](CCCNC(=N)N)C(=O)N[C@H](C(=O)N[C@@H](Cc2c[nH]c3ccccc23)C(=O)N[C@@H](CCCNC(=N)N)C(N)=O)C(C)C)C(C)C)NC(=O)[C@H](CC(=O)O)NC(=O)[C@H](CC(C)C)NC1=O (single isomer, unassigned) [FP-0745c, Ac-P-Q-PR-I-L-D-R6-H-V-R-R-V-W-R-NN2] |
